Legend:
[1] = test system: UACC-257; assay: NCI-60 single-dose screen; format: cell-based; settings: Homo sapiens, single dose 10 µM, '-' = no inhibition, read-out: % Growth Inhibition
Procedure, shortened: (§1)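 Single concentration of 10 μM applied to every line of the 60-cell-line NCI panel. Testing performed by NCI DTP.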

[2] = test system: NCI-H23; assay: NCI-60 single-dose screen; format: cell-based; settings: Homo sapiens, single dose 10 µM, '-' = no inhibition, read-out: % Growth Inhibition
Procedure, shortened: as §1

[3] = test system: MCF7; assay: NCI-60 single-dose screen; format: cell-based; settings: Homo sapiens, single dose 10 µM, '-' = no inhibition, read-out: % Growth Inhibition
Procedure, shortened: as §1

[4] = test system: M14; assay: NCI-60 single-dose screen; format: cell-based; settings: Homo sapiens, single dose 10 µM, '-' = no inhibition, read-out: % Growth Inhibition
Procedure, shortened: as §1

[5] = test system: ACHN 1; assay: NCI-60 single-dose screen; format: cell-based; settings: Homo sapiens, single dose 10 µM, '-' = no inhibition, read-out: % Growth Inhibition
Procedure, shortened: as §1

[6] = test system: UO-31; assay: NCI-60 single-dose screen; format: cell-based; settings: Homo sapiens, single dose 10 µM, '-' = no inhibition, read-out: % Growth Inhibition
Procedure, shortened: as §1

[7] = test system: MOLT-4; assay: NCI-60 single-dose screen; format: cell-based; settings: Homo sapiens, single dose 10 µM, '-' = no inhibition, read-out: % Growth Inhibition
Procedure, shortened: as §1

[8] = test system: SK-MEL-2; assay: NCI-60 single-dose screen; format: cell-based; settings: Homo sapiens, single dose 10 µM, '-' = no inhibition, read-out: % Growth Inhibition
Procedure, shortened: as §1

[9] = test system: PC-3; assay: NCI-60 single-dose screen; format: cell-based; settings: Homo sapiens, single dose 10 µM, '-' = no inhibition, read-out: % Growth Inhibition
Procedure, shortened: as §1

[10] = test system: OVCAR-8; assay: NCI-60 single-dose screen; format: cell-based; settings: Homo sapiens, single dose 10 µM, '-' = no inhibition, read-out: % Growth Inhibition
Procedure, shortened: as §1

[11] = test system: K-562; assay: NCI-60 single-dose screen; format: cell-based; settings: Homo sapiens, K562, single dose 10 µM, '-' = no inhibition, read-out: % Growth Inhibition
Procedure, shortened: as §1

[12] = test system: BT-549; assay: NCI-60 single-dose screen; format: cell-based; settings: Homo sapiens, single dose 10 µM, '-' = no inhibition, read-out: % Growth Inhibition
Procedure, shortened: as §1

[13] = test system: MDA-MB-468; assay: NCI-60 single-dose screen; format: cell-based; settings: Homo sapiens, single dose 10 µM, '-' = no inhibition, read-out: % Growth Inhibition
Procedure, shortened: as §1

[14] = test system: TK-10; assay: NCI-60 single-dose screen; format: cell-based; settings: Homo sapiens, single dose 10 µM, '-' = no inhibition, read-out: % Growth Inhibition
Procedure, shortened: as §1

[15] = test system: IGROV1; assay: NCI-60 single-dose screen; format: cell-based; settings: Homo sapiens, IGROV-1, single dose 10 µM, '-' = no inhibition, read-out: % Growth Inhibition
Procedure, shortened: as §1

[16] = test system: EKVX; assay: NCI-60 single-dose screen; format: cell-based; settings: Homo sapiens, single dose 10 µM, '-' = no inhibition, read-out: % Growth Inhibition
Procedure, shortened: as §1

[17] = test system: HCC-2998; assay: NCI-60 single-dose screen; format: cell-based; settings: Homo sapiens, single dose 10 µM, '-' = no inhibition, read-out: % Growth Inhibition
Procedure, shortened: as §1

[18] = test system: SK-OV-3; assay: NCI-60 single-dose screen; format: cell-based; settings: Homo sapiens, single dose 10 µM, '-' = no inhibition, read-out: % Growth Inhibition
Procedure, shortened: as §1

[19] = test system: MDA-MB-435; assay: NCI-60 single-dose screen; format: cell-based; settings: Homo sapiens, single dose 10 µM, '-' = no inhibition, read-out: % Growth Inhibition
Procedure, shortened: as §1

[20] = test system: CAKI-1; assay: NCI-60 single-dose screen; format: cell-based; settings: Homo sapiens, single dose 10 µM, '-' = no inhibition, read-out: % Growth Inhibition
Procedure, shortened: as §1

[21] = test system: RPMI-8226; assay: NCI-60 single-dose screen; format: cell-based; settings: Homo sapiens, single dose 10 µM, '-' = no inhibition, read-out: % Growth Inhibition
Procedure, shortened: as §1

[22] = test system: SK-MEL-28; assay: NCI-60 single-dose screen; format: cell-based; settings: Homo sapiens, single dose 10 µM, '-' = no inhibition, read-out: % Growth Inhibition
Procedure, shortened: as §1

[23] = test system: UACC-62; assay: NCI-60 single-dose screen; format: cell-based; settings: Homo sapiens, single dose 10 µM, '-' = no inhibition, read-out: % Growth Inhibition
Procedure, shortened: as §1

[24] = test system: HL-60(TB); assay: NCI-60 single-dose screen; format: cell-based; settings: Homo sapiens, single dose 10 µM, '-' = no inhibition, read-out: % Growth Inhibition
[25] = test system: SF-295; assay: NCI-60 single-dose screen; format: cell-based; settings: Homo sapiens, single dose 10 µM, '-' = no inhibition, read-out: % Growth Inhibition
Procedure, shortened: as §1

[26] = test system: NCI-H460; assay: NCI-60 single-dose screen; format: cell-based; settings: Homo sapiens, single dose 10 µM, '-' = no inhibition, read-out: % Growth Inhibition
Procedure, shortened: as §1

[27] = test system: MALME-3M; assay: NCI-60 single-dose screen; format: cell-based; settings: Homo sapiens, single dose 10 µM, '-' = no inhibition, read-out: % Growth Inhibition
Procedure, shortened: as §1

[28] = test system: HT29; assay: NCI-60 single-dose screen; format: cell-based; settings: Homo sapiens, HT-29, single dose 10 µM, '-' = no inhibition, read-out: % Growth Inhibition
Procedure, shortened: as §1

[29] = test system: A498; assay: NCI-60 single-dose screen; format: cell-based; settings: Homo sapiens, single dose 10 µM, '-' = no inhibition, read-out: % Growth Inhibition
Procedure, shortened: as §1

[30] = test system: NCI-H522; assay: NCI-60 single-dose screen; format: cell-based; settings: Homo sapiens, single dose 10 µM, '-' = no inhibition, read-out: % Growth Inhibition
Procedure, shortened: as §1

[31] = test system: NCI-H322M; assay: NCI-60 single-dose screen; format: cell-based; settings: Homo sapiens, single dose 10 µM, '-' = no inhibition, read-out: % Growth Inhibition
Procedure, shortened: as §1

[32] = test system: HCT-15; assay: NCI-60 single-dose screen; format: cell-based; settings: Homo sapiens, single dose 10 µM, '-' = no inhibition, read-out: % Growth Inhibition
Procedure, shortened: as §1

[33] = test system: OVCAR-3; assay: NCI-60 single-dose screen; format: cell-based; settings: Homo sapiens, single dose 10 µM, '-' = no inhibition, read-out: % Growth Inhibition
Procedure, shortened: as §1

[34] = test system: SN12C; assay: NCI-60 single-dose screen; format: cell-based; settings: Homo sapiens, single dose 10 µM, '-' = no inhibition, read-out: % Growth Inhibition
Procedure, shortened: as §1

[35] = test system: KM12; assay: NCI-60 single-dose screen; format: cell-based; settings: Homo sapiens, single dose 10 µM, '-' = no inhibition, read-out: % Growth Inhibition
Procedure, shortened: as §1

[36] = test system: MDA-MB231/ATCC; assay: NCI-60 single-dose screen; format: cell-based; settings: Homo sapiens, MDA-MB-231, single dose 10 µM, '-' = no inhibition, read-out: % Growth Inhibition
Procedure, shortened: as §1

[37] = test system: NCI/ADR-RES; assay: NCI-60 single-dose screen; format: cell-based; settings: Homo sapiens, single dose 10 µM, '-' = no inhibition, read-out: % Growth Inhibition
Procedure, shortened: as §1

[38] = test system: SF-268; assay: NCI-60 single-dose screen; format: cell-based; settings: Homo sapiens, single dose 10 µM, '-' = no inhibition, read-out: % Growth Inhibition
Procedure, shortened: as §1

[39] = test system: SW-620; assay: NCI-60 single-dose screen; format: cell-based; settings: Homo sapiens, single dose 10 µM, '-' = no inhibition, read-out: % Growth Inhibition
Procedure, shortened: as §1

[40] = test system: SF-539; assay: NCI-60 single-dose screen; format: cell-based; settings: Homo sapiens, single dose 10 µM, '-' = no inhibition, read-out: % Growth Inhibition
Procedure, shortened: as §1

[41] = test system: SNB-19; assay: NCI-60 single-dose screen; format: cell-based; settings: Homo sapiens, single dose 10 µM, '-' = no inhibition, read-out: % Growth Inhibition
Procedure, shortened: as §1

[42] = test system: LOX IMVI; assay: NCI-60 single-dose screen; format: cell-based; settings: Homo sapiens, single dose 10 µM, '-' = no inhibition, read-out: % Growth Inhibition
Procedure, shortened: as §1

[43] = test system: SR; assay: NCI-60 single-dose screen; format: cell-based; settings: Homo sapiens, single dose 10 µM, '-' = no inhibition, read-out: % Growth Inhibition
Procedure, shortened: as §1

[44] = test system: SNB-75; assay: NCI-60 single-dose screen; format: cell-based; settings: Homo sapiens, single dose 10 µM, '-' = no inhibition, read-out: % Growth Inhibition
Procedure, shortened: as §1

[45] = test system: DU-145; assay: NCI-60 single-dose screen; format: cell-based; settings: Homo sapiens, single dose 10 µM, '-' = no inhibition, read-out: % Growth Inhibition
Procedure, shortened: as §1

[46] = test system: RXF 393; assay: NCI-60 single-dose screen; format: cell-based; settings: Homo sapiens, single dose 10 µM, '-' = no inhibition, read-out: % Growth Inhibition
Procedure, shortened: as §1

[47] = test system: CCRF-CEM; assay: NCI-60 single-dose screen; format: cell-based; settings: Homo sapiens, single dose 10 µM, '-' = no inhibition, read-out: % Growth Inhibition
Procedure, shortened: as §1

Question: What does the source list for `COc1ccc(-c2cc(-c3cccc(OC)c3)nc(SC(C)C)n2)cc1` [Compound 19, 2-(Isopropylthio)-6-(3-methoxyphenyl)-4-(4-methoxyphenyl)pyrimidine]?
Answer: inhibition at 10 µM [1]: < 0%; inhibition at 10 µM [2]: 8.76%; inhibition at 10 µM [3]: 11.6%; inhibition at 10 µM [4]: < 0%; inhibition at 10 µM [5]: < 0%; inhibition at 10 µM [6]: 23.6%; inhibition at 10 µM [7]: 23.8%; inhibition at 10 µM [8]: 7.18%; inhibition at 10 µM [9]: 17.2%; inhibition at 10 µM [10]: 10.7%; inhibition at 10 µM [11]: 29.5%; inhibition at 10 µM [12]: 6.85%; inhibition at 10 µM [13]: 20.2%; inhibition at 10 µM [14]: < 0%; inhibition at 10 µM [15]: < 0%; inhibition at 10 µM [16]: 22.7%; inhibition at 10 µM [17]: < 0%; inhibition at 10 µM [18]: < 0%; inhibition at 10 µM [19]: 3.92%; inhibition at 10 µM [20]: 24.1%; inhibition at 10 µM [21]: 10.1%; inhibition at 10 µM [22]: < 0%; inhibition at 10 µM [23]: 25.5%; inhibition at 10 µM [24]: 22.6%; inhibition at 10 µM [25]: 4.16%; inhibition at 10 µM [26]: 2.13%; inhibition at 10 µM [27]: < 0%; inhibition at 10 µM [28]: 32.5%; inhibition at 10 µM [29]: < 0%; inhibition at 10 µM [30]: 21%; inhibition at 10 µM [31]: 4.92%; inhibition at 10 µM [32]: 24.5%; inhibition at 10 µM [33]: < 0%; inhibition at 10 µM [34]: 18.5%; inhibition at 10 µM [35]: 5.72%; inhibition at 10 µM [36]: 17.3%; inhibition at 10 µM [37]: 9.86%; inhibition at 10 µM [38]: 9.81%; inhibition at 10 µM [39]: < 0%; inhibition at 10 µM [40]: 0.24%; inhibition at 10 µM [41]: 7.53%; inhibition at 10 µM [42]: 6.05%; inhibition at 10 µM [43]: 27.6%; inhibition at 10 µM [44]: < 0%; inhibition at 10 µM [45]: 4.58%; inhibition at 10 µM [46]: 18.9%; inhibition at 10 µM [47]: 9.07%; melting point: 235 to 237 °C

Source: paper PMC11576293, “New series of 4,6-diaryl pyrimidines: facile synthesis and antiproliferative activity as dual EGFR/VEGFR-2 inhibitors” (Frontiers in Chemistry, 2024)
